Laboratory results: PubChem BioAssay AID2060616 (Molecular Pharmacology Branch, DTP, NCI, 2025)
Blank lines part the entries; values can stand above or below the compound they belong to.

Test system: 377384-186-R-J1-PDC complex spheroid viability
Assay: Anticancer human tumor 377384-186-R-J1-PDC patient-derived pancreatic carcinoma cell line growth inhibition [CLK]
Conditions: for IC50: curve of first compound; for viability, T/C: stronger effect = lower value
How it was run: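 Patient-derived tumor cells grown as complex spheroids with HUVEC endothelial cells and mesenchymal stem cells, treated with drug combinations. Concentrations descend in half-log steps from near clinical Cmax, or from 10 microM if Cmax unknown.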

[1] = second compound 0.0316 µM, first compound 0.0316 µM
[2] = second compound 0.0316 µM, first compound 0.1 µM
[3] = second compound 0.0316 µM, first compound 0.316 µM
[4] = second compound 0.0316 µM, first compound 1 µM
[5] = second compound 0.0316 µM, first compound 3.16 µM
[6] = second compound 0.0316 µM, first compound 10 µM
[7] = second compound 0.1 µM, first compound 0.0316 µM
[8] = second compound 0.1 µM, first compound 0.1 µM
[9] = second compound 0.1 µM, first compound 0.316 µM
[10] = second compound 0.1 µM, first compound 1 µM
[11] = second compound 0.1 µM, first compound 3.16 µM
[12] = second compound 0.1 µM, first compound 10 µM
[13] = second compound 0.316 µM, first compound 0.0316 µM
[14] = second compound 0.316 µM, first compound 0.1 µM
[15] = second compound 0.316 µM, first compound 0.316 µM
[16] = second compound 0.316 µM, first compound 1 µM
[17] = second compound 0.316 µM, first compound 3.16 µM
[18] = second compound 0.316 µM, first compound 10 µM
[19] = second compound 1 µM, first compound 0.0316 µM
[20] = second compound 1 µM, first compound 0.1 µM
[21] = second compound 1 µM, first compound 0.316 µM
[22] = second compound 1 µM, first compound 1 µM
[23] = second compound 1 µM, first compound 3.16 µM
[24] = second compound 1 µM, first compound 10 µM
[25] = second compound 3.16 µM, first compound 0.0316 µM
[26] = second compound 3.16 µM, first compound 0.1 µM
[27] = second compound 3.16 µM, first compound 0.316 µM
[28] = second compound 3.16 µM, first compound 1 µM
[29] = second compound 3.16 µM, first compound 3.16 µM
[30] = second compound 3.16 µM, first compound 10 µM
[31] = second compound 10 µM, first compound 0.0316 µM
[32] = second compound 10 µM, first compound 0.1 µM
[33] = second compound 10 µM, first compound 0.316 µM
[34] = second compound 10 µM, first compound 1 µM
[35] = second compound 10 µM, first compound 3.16 µM
[36] = second compound 10 µM, first compound 10 µM
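Note: spheroids exposed to agents for 7 days before reading.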
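Throughout, for viability, T/C: luminescence signal used as a stand-in for viable cells.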

Compound: C=CC(=O)N1CCN(c2nc(=O)n(-c3c(C)ccnc3C(C)C)c3nc(-c4c(O)cccc4F)c(F)cc23)C(C)C1 (stereo not given) + CNC(=O)c1ccc(Nc2nc(OC3CCCC3)c3c(-c4ccc5nc(C)oc5c4)c[nH]c3n2)c(OC)c1
IC50 (second compound 0.0316 µM): > 10000 nM
IC50 (second compound 0.1 µM): 2760 nM
IC50 (second compound 0.316 µM): < 31.6 nM
IC50 (second compound 1 µM): < 31.6 nM
IC50 (second compound 3.16 µM): < 31.6 nM
IC50 (second compound 10 µM): < 31.6 nM
viability, T/C [1]: 108%
viability, T/C [2]: 111%
viability, T/C [3]: 99.1%
viability, T/C [4]: 111%
viability, T/C [5]: 116%
viability, T/C [6]: 91.7%
viability, T/C [7]: 62.5%
viability, T/C [8]: 64.7%
viability, T/C [9]: 56.4%
viability, T/C [10]: 68.6%
viability, T/C [11]: 48.3%
viability, T/C [12]: 36%
viability, T/C [13]: 22.9%
viability, T/C [14]: 18.9%
viability, T/C [15]: 20.5%
viability, T/C [16]: 25%
viability, T/C [17]: 24%
viability, T/C [18]: 21.4%
viability, T/C [19]: 20.2%
viability, T/C [20]: 20.1%
viability, T/C [21]: 18.3%
viability, T/C [22]: 21.3%
viability, T/C [23]: 23.1%
viability, T/C [24]: 21.5%
viability, T/C [25]: 23.6%
viability, T/C [26]: 23.5%
viability, T/C [27]: 22%
viability, T/C [28]: 24.5%
viability, T/C [29]: 26.1%
viability, T/C [30]: 23.1%
viability, T/C [31]: 18.7%
viability, T/C [32]: 18.3%
viability, T/C [33]: 18.4%
viability, T/C [34]: 20.3%
viability, T/C [35]: 23.8%
viability, T/C [36]: 19.7%

Compound: CC(CO)NC(=O)c1cc(-c2ccc(Cl)cc2)nn(-c2cnn(C)c2)c1=O (stereo not given) + CNC(=O)c1ccc(Nc2nc(OC3CCCC3)c3c(-c4ccc5nc(C)oc5c4)c[nH]c3n2)c(OC)c1
IC50 (second compound 0.0316 µM): 9170 nM
IC50 (second compound 0.1 µM): 3300 nM
IC50 (second compound 0.316 µM): < 31.6 nM
IC50 (second compound 1 µM): < 31.6 nM
IC50 (second compound 3.16 µM): < 31.6 nM
IC50 (second compound 10 µM): < 31.6 nM
viability, T/C [1]: 102%
viability, T/C [2]: 120%
viability, T/C [3]: 117%
viability, T/C [4]: 106%
viability, T/C [5]: 85.1%
viability, T/C [6]: 47.1%
viability, T/C [7]: 64.1%
viability, T/C [8]: 75.6%
viability, T/C [9]: 55.4%
viability, T/C [10]: 58.4%
viability, T/C [11]: 53.1%
viability, T/C [12]: 35.9%
viability, T/C [13]: 23.6%
viability, T/C [14]: 25.4%
viability, T/C [15]: 24.7%
viability, T/C [16]: 22.7%
viability, T/C [17]: 24.4%
viability, T/C [18]: 20.5%
viability, T/C [19]: 26.8%
viability, T/C [20]: 20.7%
viability, T/C [21]: 21%
viability, T/C [22]: 22%
viability, T/C [23]: 20.5%
viability, T/C [24]: 17.8%
viability, T/C [25]: 21%
viability, T/C [26]: 21.2%
viability, T/C [27]: 21.7%
viability, T/C [28]: 23.9%
viability, T/C [29]: 22.3%
viability, T/C [30]: 19.6%
viability, T/C [31]: 22.5%
viability, T/C [32]: 21.3%
viability, T/C [33]: 20.4%
viability, T/C [34]: 19.9%
viability, T/C [35]: 18.1%
viability, T/C [36]: 19.1%

Compounds with a lower IC50 (second compound 0.0316 µM), results first:

IC50 (second compound 0.0316 µM): < 31.6 nM
IC50 (second compound 0.1 µM): < 31.6 nM
IC50 (second compound 0.316 µM): < 31.6 nM
IC50 (second compound 1 µM): < 31.6 nM
IC50 (second compound 3.16 µM): < 31.6 nM
IC50 (second compound 10 µM): < 31.6 nM
Compound: C#Cc1c(F)ccc2cc(O)cc(-c3ncc4c(N5CC6CCC(C5)N6)nc(OCC56CCCN5CC(F)C6)nc4c3F)c12 (stereo not given) + CNC(=O)c1ccc(Nc2nc(OC3CCCC3)c3c(-c4ccc5nc(C)oc5c4)c[nH]c3n2)c(OC)c1
viability, T/C [1]: 23.6%
viability, T/C [2]: 11.7%
viability, T/C [3]: 5.37%
viability, T/C [4]: 4.27%
viability, T/C [5]: 2.38%
viability, T/C [6]: 1.98%
viability, T/C [7]: 22%
viability, T/C [8]: 8.53%
viability, T/C [9]: 5.17%
viability, T/C [10]: 2.73%
viability, T/C [11]: 2.7%
viability, T/C [12]: 2.19%
viability, T/C [13]: 7.28%
viability, T/C [14]: 4.75%
viability, T/C [15]: 3.08%
viability, T/C [16]: 2.69%
viability, T/C [17]: 2.74%
viability, T/C [18]: 2.17%
viability, T/C [19]: 6.44%
viability, T/C [20]: 3.72%
viability, T/C [21]: 2.21%
viability, T/C [22]: 1.64%
viability, T/C [23]: 1.66%
viability, T/C [24]: 1.12%
viability, T/C [25]: 4.56%
viability, T/C [26]: 3.31%
viability, T/C [27]: 2.47%
viability, T/C [28]: 2.25%
viability, T/C [29]: 1.64%
viability, T/C [30]: 1.59%
viability, T/C [31]: 4.62%
viability, T/C [32]: 2.7%
viability, T/C [33]: 2.29%
viability, T/C [34]: 1.95%
viability, T/C [35]: 1.6%
viability, T/C [36]: 2.24%

IC50 (second compound 0.0316 µM): 2060 nM
IC50 (second compound 0.1 µM): 145 nM
IC50 (second compound 0.316 µM): < 31.6 nM
IC50 (second compound 1 µM): < 31.6 nM
IC50 (second compound 3.16 µM): < 31.6 nM
IC50 (second compound 10 µM): < 31.6 nM
Compound: C=C(F)C(=O)N1CCN(c2nc(OCC3CCCN3C)nc3c2CCN(c2cccc4cccc(Cl)c24)C3)CC1CC#N (stereo not given) + CNC(=O)c1ccc(Nc2nc(OC3CCCC3)c3c(-c4ccc5nc(C)oc5c4)c[nH]c3n2)c(OC)c1
viability, T/C [1]: 99.6%
viability, T/C [2]: 93.8%
viability, T/C [3]: 102%
viability, T/C [4]: 96.6%
viability, T/C [5]: 22.3%
viability, T/C [6]: 0.88%
viability, T/C [7]: 54.3%
viability, T/C [8]: 50.9%
viability, T/C [9]: 45.7%
viability, T/C [10]: 40.4%
viability, T/C [11]: 23.1%
viability, T/C [12]: 0.37%
viability, T/C [13]: 21.2%
viability, T/C [14]: 22.8%
viability, T/C [15]: 20.7%
viability, T/C [16]: 22.1%
viability, T/C [17]: 12%
viability, T/C [18]: 0.26%
viability, T/C [19]: 19.5%
viability, T/C [20]: 19.3%
viability, T/C [21]: 19%
viability, T/C [22]: 17.9%
viability, T/C [23]: 11.1%
viability, T/C [24]: 0.2%
viability, T/C [25]: 20.5%
viability, T/C [26]: 20.9%
viability, T/C [27]: 18.3%
viability, T/C [28]: 20.3%
viability, T/C [29]: 8.66%
viability, T/C [30]: 0.22%
viability, T/C [31]: 20.6%
viability, T/C [32]: 21.4%
viability, T/C [33]: 21.9%
viability, T/C [34]: 17.1%
viability, T/C [35]: 8.61%
viability, T/C [36]: 0.3%

IC50 (second compound 0.0316 µM): 29.9 nM
IC50 (second compound 0.1 µM): 12.2 nM
IC50 (second compound 0.316 µM): < 3.16 nM
IC50 (second compound 1 µM): < 3.16 nM
IC50 (second compound 3.16 µM): < 3.16 nM
IC50 (second compound 10 µM): < 3.16 nM
Compound: COc1c(OCCCN2CCOCC2)ccc2c3n(c(=NC(=O)c4cnc(N)nc4)nc12)CCN3 + CNC(=O)c1ccc(Nc2nc(OC3CCCC3)c3c(-c4ccc5nc(C)oc5c4)c[nH]c3n2)c(OC)c1
viability, T/C (second compound 0.0316 µM, first compound 0.00316 µM): 74.8%
viability, T/C (second compound 0.0316 µM, first compound 0.01 µM): 66.1%
viability, T/C [1]: 47.6%
viability, T/C [2]: 33.9%
viability, T/C [3]: 23.1%
viability, T/C [4]: 14%
viability, T/C (second compound 0.1 µM, first compound 0.00316 µM): 63.3%
viability, T/C (second compound 0.1 µM, first compound 0.01 µM): 54.5%
viability, T/C [7]: 35.7%
viability, T/C [8]: 27.5%
viability, T/C [9]: 17.4%
viability, T/C [10]: 12%
viability, T/C (second compound 0.316 µM, first compound 0.00316 µM): 19.1%
viability, T/C (second compound 0.316 µM, first compound 0.01 µM): 19.1%
viability, T/C [13]: 14.5%
viability, T/C [14]: 14%
viability, T/C [15]: 11.6%
viability, T/C [16]: 10.4%
viability, T/C (second compound 1 µM, first compound 0.00316 µM): 19%
viability, T/C (second compound 1 µM, first compound 0.01 µM): 16.6%
viability, T/C [19]: 16.8%
viability, T/C [20]: 12.2%
viability, T/C [21]: 10.7%
viability, T/C [22]: 9.69%
viability, T/C (second compound 3.16 µM, first compound 0.00316 µM): 19.9%
viability, T/C (second compound 3.16 µM, first compound 0.01 µM): 17.6%
viability, T/C [25]: 13.6%
viability, T/C [26]: 12.9%
viability, T/C [27]: 9.91%
viability, T/C [28]: 9.78%
viability, T/C (second compound 10 µM, first compound 0.00316 µM): 21.4%
viability, T/C (second compound 10 µM, first compound 0.01 µM): 17.7%
viability, T/C [31]: 14.4%
viability, T/C [32]: 11.6%
viability, T/C [33]: 10.8%
viability, T/C [34]: 9.14%
